As a reminder, the inhibition is the change of the read-out against control, counted positive when it falls.

This is an account of results in PMC4552634, “A New Set of Chemical Starting Points with Plasmodium falciparum Transmission-Blocking Potential for Antimalarial Drug Discovery” (PLoS ONE, 2015).

Where two headings read alike, the source gives them in different places.

For series [1], the system named is P. falciparum stage V gametocytes. The experiment in a line: Gametocytocidal ATP bioluminescence assay (single point 5 μM and 1 μM, dose-response). In kind it is cell-based, Plasmodium falciparum. The following applies: for Ratio IC50 HepG2/IC50 P. falciparum: IC50 HepG2 divided by IC50 P. falciparum gametocytes.
Description: Purified stage IV-V gametocytes were obtained as previously described [10]. Single point ATP bioluminescence assay and dose–response of positive hits was determined in accordance with the previously published protocol [10].
Series [2] relates to luciferase reaction (BacTiter-Glo). Put plainly: Interference assay (inhibition of the BacTiter-Glo luciferase reaction). Format: biochemical. Details: concentration or dose not given beside the values. As to conditions: ATP interference assay. The procedure:
To discard possible false-positive results, we performed an interference assay in parallel. […] […]. The ATP solution was made by dissolving ATP powder (ATP standard from the ATPlite 1 step assay kit, reference 6016731, Perkin Elmer) in culture medium. The positive control used was the Luciferase Inhibitor I Calbiochem (Merck, 119113) at 100 μM.

In another series the test system is HepG2 cells. Put plainly: Cytotoxicity in HepG2 cells (intracellular ATP, ATPlite, 48 h). In kind it is cell-based, human. As to conditions: for IC50: HepG2 cells, IC50 per ratio column head, unit inferred.
In series [3] the test system is P. falciparum asexual stages. As to conditions: TCAMS data, cited from earlier work.
Series [4] in a line: Cytotoxicity in HepG2 cells (intracellular ATP, ATPlite, 48 h). The following applies: human, HepG2 cells. In kind it is cell-based, human.
Series [5] has as its system P. falciparum stage V gametocytes. The experiment in a line: microbe, parasite or virus in culture. As to conditions: Plasmodium falciparum, 48 h, read-out: % Inhibition. On the set-up: BacTiter-Glo ATP luminescence viability of purified stage V gametocytes in 384-well plates, per cent inhibition versus DMSO.
Setting [6] is: P. falciparum gametocytes, average, read-out: IC50 Pf Gametocytes average, IC50 (µM) average.
The mark [7] stands for this setting: asexual stages, read-out: IC50 asexual.
The mark [8] stands for this setting: sexual stages (gametocytes), dose-response, read-out: IC50 sexual.
Where [9] appears, read: Plasmodium falciparum, P. falciparum gametocytes, average, read-out: IC50 Pf Gametocytes average, IC50 (µM) average.
The mark [10] stands for this setting: P. falciparum asexual stages, read-out: IC50 (µM) Pf asexual stages.

As to `CCN(CC)CCCn1c(N)c(-c2nc3ccccc3[nH]2)c2nc(C#N)c(C#N)nc21` [TCMDC-123680], in series [1], the “Ratio IC50 HepG2/IC50 P. falciparum” value was found to be 62. In addition, the values for the IC50 (in series [1] (setting [6]); with HepG2 cells; in series [3] (setting [7])) were 0.14 µM, 8.7 µM and 0.267 µM, respectively. For the same molecule, the “% Control luminiscence” value in series [2] came to 100%.
Regarding `CN(C)CCCn1c(N)c(-c2nc3ccccc3[nH]2)c2nc(C#N)c(C#N)nc21` [TCMDC-123729], the “Ratio IC50 HepG2/IC50 P. falciparum” value in series [1] is listed as 35. Moreover, the IC50 in series [1] (setting [6]) is 0.2 µM; in the series on HepG2 cells, 6.93 µM; in series [3] (setting [7]), 0.591 µM. The “% Control luminiscence” value in series [2] was found to be 100%.
Consider `c1ccc(CSC2=NNC(c3ccccn3)S2)cc1` (centres unmarked) [TCMDC-123769], for which the “Ratio IC50 HepG2/IC50 P. falciparum” value in series [1] is on record as more than 3. Further, the IC50 was 7.98 µM in series [1] (setting [6]), 7.98 µM in series [1] (setting [8]), more than 25 µM in the series on HepG2 cells and 1.48 µM in series [3] (setting [7]). The “% Control luminiscence” value in series [2] stood at 100%.
On to `N=c1n(Cc2ccc(Cl)cc2)c2ccccc2n1CC(O)c1ccc(Cl)c(Cl)c1` (centres unmarked) [TCMDC-123813], for which the “Ratio IC50 HepG2/IC50 P. falciparum” value in series [1] worked out at 18. Also, the IC50 is 0.36 µM in series [1] (setting [6]), 0.357 µM in series [1] (setting [8]), 6.5 µM with HepG2 cells and 0.677 µM in series [3] (setting [7]). For the same molecule, the “% Control luminiscence” value in series [2] is 99%.
With `COc1ccc(C[C@H](N)C(=O)N[C@H]2[C@@H](O)[C@H](n3cnc4c(N(C)C)ncnc43)O[C@@H]2CO)cc1` [TCMDC-123927], the “Ratio IC50 HepG2/IC50 P. falciparum” value in series [1] was 4. For the same molecule, the IC50 in series [1] (setting [6]) is 0.65 µM; in series [1] (setting [8]), 0.647 µM; with HepG2 cells, 2.69 µM; in series [3] (setting [7]) it was 0.299 µM. In series [2], the “% Control luminiscence” value is given as 100%.
Take `N=c1n(CCN2CCCCC2)c2ccccc2n1CC(O)c1ccc(Cl)c(Cl)c1` (centres unmarked) [TCMDC-124064]: the “Ratio IC50 HepG2/IC50 P. falciparum” value in series [1] is given as 1.59. The IC50 is 3.27 µM in series [1] (setting [6]), 3.27 µM in series [1] (setting [8]), 5.2 µM in the series with HepG2 cells and 0.32 µM in series [3] (setting [7]). For the same molecule, in series [2], the “% Control luminiscence” value came to 100%.
`Cc1ccc(-n2nc(-c3ccccc3)c3cc(C(=O)NCCN)sc32)cc1` [TCMDC-124776]: the “Ratio IC50 HepG2/IC50 P. falciparum” value in series [1] amounted to 7. Moreover, the IC50 in series [1] (setting [6]) is 1.11 µM; in the series on HepG2 cells, 7.83 µM; in series [3] (setting [7]), 1.36 µM. Further, the “% Control luminiscence” value in series [2] was 99%.
For `COc1ccc(OC)c(-c2cccc(-c3cccc(NC(=O)c4ccc([N+](=O)[O-])o4)c3)n2)c1` [TCMDC-124799], the “Ratio IC50 HepG2/IC50 P. falciparum” value in series [1] worked out at 8. Moreover, the IC50 was 0.78 µM in series [1] (setting [6]), 6.15 µM with HepG2 cells and 0.371 µM in series [3] (setting [7]). In series [2], the “% Control luminiscence” value is recorded as 100%.
As for `COc1ccccc1-c1cccc(-c2cccc(NC(=O)c3ccc([N+](=O)[O-])o3)c2)n1` [TCMDC-124800], the “Ratio IC50 HepG2/IC50 P. falciparum” value in series [1] is on record as 7. Besides, the IC50 is 1.66 µM in series [1] (setting [6]), 1.66 µM in series [1] (setting [8]), 11.5 µM in the series on HepG2 cells and 0.603 µM in series [3] (setting [7]). Besides, the “% Control luminiscence” value in series [2] was 100%.
For `Cc1ccc(Nc2nc(-c3ccccn3)cs2)nc1` [TCMDC-125854], the IC50 in series [1] (setting [9]) is 0.16 µM; in series [1] (setting [8]) it was 0.159 µM; in series [3] (setting [7]), 0.752 µM. Further, the “% Control luminiscence” value in series [2] is given as 100%.
Turning to `COc1ccc(-c2cc(-c3ccc(S(C)(=O)=O)cc3)cnc2N)cn1` [TCMDC-133351], the IC50 in series [1] (setting [9]) is 1.18 µM; in series [1] (Plasmodium falciparum, sexual stages (gametocytes), dose-response, read-out: IC50 sexual), 1.18 µM; in series [3] (setting [10]), 0.19 µM; in series [3] (setting [7]) it was 0.187 µM. Also, the “% Control luminiscence” value in series [2] turned out to be 100%.
As for `Nc1cc(C=Cc2ccc([N+](=O)[O-])o2)nc2ccccc12` [TCMDC-142295], the “Ratio IC50 HepG2/IC50 P. falciparum” value in series [1] worked out at 58; with HepG2 cells (IC50 HepG2 divided by IC50 P. falciparum gametocytes) it was 59. The IC50 in series [1] (Plasmodium falciparum, P. falciparum gametocytes, dose-response, average, read-out: IC50 Pf Gametocytes average IC50 (µM) average) is 0.21 µM; in series [1] (setting [9]) it was 0.2 µM; in series [3] (setting [10]) it was 0.37 µM; in series [3] (setting [7]) it was 0.367 µM. Besides, the IC50 at 48 h was determined as 11.7 µM in series [4] (IC50 per ratio column head, unit inferred, read-out: Cytotoxicity in HepG2) and 12 µM in series [4] (read-out: Cytotoxicity in HepG2 IC50 (µM) Malaria DPU). In addition, the inhibition at 5 µM in series [5] stood at 116%.
